Test results published in patent publication US7659292B2 (priority 2001, dated 2010).
Read-outs that look alike come from different tables or passages of the source.

System: Phytophthora infestans
Format: in vivo
Details: for Efficacy (obs.)/ %: percentage disease control relative to untreated plants; for Rating: potato plants, spray 200 l/ha, inoculated 24 hours after treatment, degree of infestation

CCCOC(=O)NCCCN(C)C [Compound (II), propyl 3-(dimethylamino)propylcarbamate]
Efficacy (obs.)/ % (400 g/ha): 0%
Efficacy (obs.)/ % (600 g/ha): 18%
Rating (400 g/ha): 8.3
Rating (600 g/ha): 6.8

O=C(NCc1ncc(C(F)(F)F)cc1Cl)c1c(Cl)cccc1Cl [Compound (Ia), 2,6-dichloro-N-{[3-chloro-5-(trifluoromethyl)-2-pyridinyl]methyl}benzamide]
Efficacy (obs.)/ % (5 g/ha): 48%
Efficacy (obs.)/ % (25 g/ha): 60%
Rating (5 g/ha): 4.3
Rating (25 g/ha): 3.3
